Measured values published in paper PMC11874195, “Structural requirements of KAI2 ligands for activation of signal transduction” (Proceedings of the National Academy of Sciences of the …, 2025).

How the values were obtained:
[1] = molecular target: T1, KAI2 (Arabidopsis thaliana, UniProt Q9SZU7); test: biochemical; set-up: Competitive inhibition of dYLG (0.5 uM) hydrolysis by purified recombinant KAI2, fluorescence read-out; settings: 0.5 uM dYLG substrate, 10 min
T1 sequence (Q9SZU7 1-270): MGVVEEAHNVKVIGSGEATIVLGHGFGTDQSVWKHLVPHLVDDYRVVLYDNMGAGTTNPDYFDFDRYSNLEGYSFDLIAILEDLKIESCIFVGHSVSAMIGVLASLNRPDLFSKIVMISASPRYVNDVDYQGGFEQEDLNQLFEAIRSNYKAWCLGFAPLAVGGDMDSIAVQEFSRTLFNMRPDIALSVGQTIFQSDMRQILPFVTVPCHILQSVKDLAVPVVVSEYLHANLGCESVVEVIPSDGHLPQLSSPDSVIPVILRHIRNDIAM
Protocol: The purified KAI2 (1 µg) was incubated with dYLG (0.5 µM) in the absence or presence of dMGer analogs for 10 min. Fluorescence intensity was measured using the Varioskan LUX plate reader (Thermo Fisher Scientific), with excitation and detection wavelengths of 480 and 520 nm, respectively. The IC50 values were calculated using the Enzyme Kinetics module of the SigmaPlot 14 program. Additional detailed methods are described in SI Appendix, Materials and Methods. To produce KAI2 protein, KAI2 cDNA was cloned into the pCold II vector, and KAI2 protein was expressed and purified as previously described(5). Briefly, the plasmid was transformed into BL21, the resulting transformant cells were precultured overnight in 2.5 mL LB medium and then cells were grown in 200 mL TB medium at 35 °C to an OD600 ~0.6. Protein expression was induced by IPTG addition, and inductions were conducted at 16 °C for 20 h. Cells were harvested and then suspended in the protein extraction buffer (50 mM Tris-HCl pH 8.0, BugBuster protein extraction reagent, and 20U of Benzonase, and the constituent proteins were purified by affinity column chromatography. The purified KAI2 (1 µg) was incubated with dYLG (0.5 µM) in the absence or presence of dMGer analogs for 10 min. We first conducted competitive inhibition assays to determine whether the carba-dMGers could bind to the ligand binding pocket of KAI2. In these assays, a profluorescent probe, desmethyl-Yoshimulactone green (dYLG), was used as a substrate, and the KAI2 binding activity was assessed by the inhibitor concentrations necessary to halve the response (IC50) for fluorophore formation. […] Differential scanning fluorimetry (DSF) assays were also performed to evaluate the effect of the dMGer analogs on KAI2 destabilization. In the DSF assay, ligand–protein interactions are monitored by changes in the melting temperature (Tm); effective agonists, such as GR24^ent^-5DS and dGR24^ent^-5DS, lower the Tm value, that is, thermally destabilize the KAI2 protein ([15], [35]).

[2] = molecular target: T1, KAI2; test: competitive dYLG hydrolysis assay with purified KAI2; also DSF and cleavage kinetics (K1/[…] =[…]); assay type: biochemical
[3] = molecular target: T1, KAI2; test: X-ray crystal structure at […] Å (soak); also dYLG competition IC50 and DSF; assay type: biochemical
[4] = molecular target: T1, KAI2; test: competitive dYLG hydrolysis assay with purified KAI2; also DSF (Tm […] to […] °C) and HPLC hydrolysis (K1/[…] =[…]); assay type: biochemical

Q: For `O=C1CC(CCc2ccccc2Br)O1` (stereo not shown) [2Br-PEO, 4-(2-bromophenethyl)oxetan-2-one], which IC50 [1] is on record?
A: 0.22 µM

Q: With `O=C1C=C[C@H](Oc2ccc(-c3ccccc3)cc2[N+](=O)[O-])C1` [(+)-1′-carba-dMGer] as the molecule, how does the IC50 [2] read?
A: 78 µM

Q: With `O=C1C=C[C@H](Cc2ccc(-c3ccccc3)cc2[N+](=O)[O-])O1` [(+)-6′-carba-dMGer] as the molecule, how does the IC50 [3] read?
A: 2.5 µM

Q: `O=C1C=C[C@H](Oc2ccc(-c3ccccc3)cc2[N+](=O)[O-])O1` [(+)-dMGer] was tested. Which IC50 [4] did it give?
A: 0.16 µM

Q: `O=C1C=C[C@@H](Oc2ccc(-c3ccccc3)cc2[N+](=O)[O-])C1` [(−)-1′-carba-dMGer] was tested. Which IC50 [1] did it give?
A: 152 µM

Q: Which IC50 [1] does the source give for `O=C1C=C[C@@H](Cc2ccc(-c3ccccc3)cc2[N+](=O)[O-])O1` [(−)-6′-carba-dMGer] here?
A: 11 µM

Q: For `O=C1C=C[C@@H](Oc2ccc(-c3ccccc3)cc2[N+](=O)[O-])O1` [(−)-dMGer], which IC50 [1] is on record?
A: 3.6 µM
